In patent US12358963B2, “Regenerative polypeptides and uses thereof” (Juvena Therapeutics, Inc., priority 2019, dated 2025):

Tests used:
Type in all cases: cell-based
[1] = tested on: human myoblast cells; assay: Human myoblast differentiation, % area eMyHC (IGF2, sodium butyrate); conditions: 96h, vehicle 6.813
Protocol: Fresh media was added every 24 hours. […] The total area of eMyHc positive cells was analyzed, and treated cells were compared to cells treated with the vehicle alone. […] Myoblast were cultured 96h in the presence of BMP7 at indicated dose. Fresh media and BMP7 was added every 24h. Mean∓S.D. (*p<0.05 by One-Way Anova Tukey Honest Significant Difference, n=2-12) […] Fresh media was added every 24 hours. […] FIG. 3A: Bar graph of % Area eMyHC+ age human myoblast (person) in response to indicated treatment compared to Vehicle (vehicle). Myoblast were cultured 96h in the presence of factors at indicated dose. Fresh media and factors were added every 24h. Mean∓S.D. Significant p-values (Vehicle IGF2: 0.03 ug/mL: 1.42E-08, Vehicle NaBut: 1 nM IGF2: 0.03 ug/mL: 1.79E-11, Vehicle NaBut: 10 nM IGF2: 0.03 ug/mL: 1.80E-11, Vehicle NaBut: 100 nM IGF2: 0.03 ug/mL: 1.79E-11). […] Myoblast were cultured 96h in the presence of BMP7 at indicated dose. Mean±S.D. Significant p-values (IGF2 NaBut: 1 nM IGF2: 0.03 ug/mL: 1.88E-3, Vehicle NaBut: 10 nM IGF2: 0.03 ug/mL: 4.80E-3, Vehicle NaBut: 100 nM IGF2: 0.03 ug/mL: 1.87E-3) (*p<0.05 by One-Way ANOVA Tukey Honest Significant Difference, n=2-12)

[2] = tested on: DM1 human myoblast; assay: Gene expression fold change in DM1 human myoblast; conditions: IGF2 200 ng/mL
[3] = tested on: DM1 human myoblast; assay: DM1 human myoblast proliferation (EdU); conditions: 72h; vehicle 1.0
Protocol: (§1) Bar graph of % EdU+ human myoblast (person) and % area MyHC in response to IGF2. Myoblast were cultured 72h for proliferation and 96h for fusion in the presence of indicated factor. Mean∓S.D. Mean∓SD. Significant p-values (EdU: Vehicle˜IGF2: 6.8E-3, % eMyHC Area: Vehicle˜IGF2: 1.9E-4) (*p<0.05 by Students Two-Tailed T-test, n=3-6).
(§2) IGF2 was tested individually for its ability to promote proliferation and/or fusion of human muscle progenitor cells from an individual with myotonic dystrophy type 1 (hMD)—a muscular dystrophy caused by mutations in the DMPK1 gene. The effect of IGF2 on myogenic activity was assayed in biological triplicate across a range of concentrations centered around expected physiological levels by adding each factor to hMD myoblasts for 72 hours with daily media changes (DMEM +2% horse serum) and a second pulse of factors at the first media change. After 72 or 96 hours, cells were pulsed for 2-5 hours with EdU (30 uM), ethanol fixed, stained with Hoescht 3342, immunostained for proliferation—as measured by the percent of cells staining positive for EdU (% EdU)—, and immunostained for differentiation—as measured by the increase in cellular area staining positive for embryonic myosin heavy chain (% eMyHC) relative to the negative controls, which received media and vehicle only. […]

[4] = tested on: DM1 human myoblast; assay: DM1 human myoblast fusion (% eMyHC area); conditions: 96h; vehicle 0.45
Protocol: as §1, §2

[5] = tested on: aged human myoblast cell lines; assay: Myogenic gene RNA expression in aged human myoblasts by real-time qPCR
Protocol: Myogenic gene RNA expression (fold change to FM) in response to vehicle (FM) in mouse myoblast cell lines monitored by real-time qPCR. Myoblast were cultured 48h in fusion media. Mean±SD. n=3. (Y,Z) Differential induction of myogenic gene expression by FGF17 in human myoblast myoblasts. Quantitation table of myogenic gene RNA expression (fold change to FM-fusion media (DMEM+2% horse serum)) in response to FM or rh-FGF17 in aged human myoblast cell lines by real-time qPCR. Myoblast were cultured (B) 48 hours or (C) 72 hours in FM. Mean∓SD. n=3.
RNA was isolated from each well (RNeasy Mini Kit, Qiagen) and cDNA was obtained by reverse-transcription (High Capacity Reverse Transcription Kit, Thermo Fisher Scientific). Real-time quantitative PCR was performed using QuantStudio3 (Thermo Fisher).
Aged human myoblasts were cultured in well plates. […] Cells that had been cultured with IGF2 had increases in levels of MYOG at 48 hours and levels of MYOD at 72 hours.

[6] = 48h, BMP7 50 ng/mL, Butyrate 100 nM, FM 1.000

IGF2: IGF2 polypeptide, IGF1R agonist
% eMyHC ([1]; IGF2 0.015 ug/mL): 10.843% | % eMyHC ([1]; IGF2 0.03 ug/mL, aged human myoblast): 16.620% | ATP1B1 expression fold change compared to FM (vehicle) ([2]; 48h): 3.018 | MYF5 expression fold change compared to FM [2, 6]: 0.730 | MYOD1 expression fold change compared to FM [2, 6]: 1.252 | MYOG expression fold change compared to FM [2, 6]: 2.972 | CKM expression fold change compared to vehicle ([2]; 96h): 5.165 | MYH3 expression fold change compared to vehicle ([2]; 96h): 14.833 | EdU FC [3]: 2.18 | % eMyHC are [4]: 5.49% | MYOD1 RNA expression (fold change to FM) ([5]; 48 hr, FM 1.001): 0.519 | MYOG RNA expression (fold change to FM) ([5]; 48 hr, FM 1.013): 5.756 | MYF5 RNA expression (fold change to FM) ([5]; 48 hr, FM 1.04): 0.409 | MYF5 RNA expression (fold change to FM) ([5]; 72 hr, FM 1.023): 0.708 | MYOD1 RNA expression (fold change to FM) ([5]; 72 hr, FM 1.055): 5.723 | MYOG RNA expression (fold change to FM) ([5]; 72 hr, FM 1.092): 0.018
